From patent US20230024108A1, “ADENOSINE A2A RECEPTOR ANTAGONISTS” (Teon Therapeutics, Inc., priority 2019, published 2023)
Structures can show the parent of a compound that is named as a salt.

Columns and labels:
A1AdoR = target: T1, A1AdoR (Homo sapiens, UniProt P30542); assay: Adenosine receptor binding assay, A1 ([3H]-DPCPX); details: ratio A1 vs A2A binding
T1 construct: purchased PerkinElmer ES-010-M400UA
T1 sequence (P30542 1-326): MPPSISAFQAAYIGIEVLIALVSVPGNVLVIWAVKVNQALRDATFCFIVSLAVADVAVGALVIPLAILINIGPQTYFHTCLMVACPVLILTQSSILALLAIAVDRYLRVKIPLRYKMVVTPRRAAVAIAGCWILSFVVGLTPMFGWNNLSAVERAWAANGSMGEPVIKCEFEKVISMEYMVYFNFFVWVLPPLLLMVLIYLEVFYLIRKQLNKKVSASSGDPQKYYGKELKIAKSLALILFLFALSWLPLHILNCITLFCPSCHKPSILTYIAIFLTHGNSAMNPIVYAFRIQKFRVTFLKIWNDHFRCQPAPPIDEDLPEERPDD
Description: (§1) Membranes prepared from CHO-K1 cells stably expressing Human AiAdoR (ES-010-M400UA), HEK-293 cells stably expressing human A2A AdoR (RBHA2AM400UA), HEK-293 cells stably expressing human A2B AdoR (ES-013-M400UA) and CHO-K1 cells stably expressing Human A3 AdoR (ES-012-M400UA) were purchased from PerkinElmer (Waltham, Mass., USA) and stored at −80° C. until use. Binding assays are performed using the radioligands. The final concentrations are as follows: [3H]-DPCPX (PerkinElmer, NET974001MC) at 1 nM for A1AdoR; [^3H]-CGS-21680 (PerkinElmer, NET1021250UC) at 6 nM for A2AAdoR, [3H]-DPCPX (PerkinElmer, NET974001MC) at 8 nM for A2BAdoR; [^3H]-HEMADO (ARC, Cat: ART1456) at 1 nM for A3AdoR. Testing compounds are diluted with DMSO to make 8-point 4-fold serial dilution. Nonspecific binding (Low control: LC) and total binding (High control: HC) are determined in the presence or absence of saturated cold ligand. Specific binding is calculated by subtracting nonspecific binding from total binding. All assays are performed in a final volume of 200 μl containing 1 μl of the test compound in DMSO, 100 μl of membrane preparation, and 99 μl of the radioligand in assay buffer (A1AdoR: 25 mM HEPES pH 7.4, 5 mM MgCl2, 1 mM CaCl2), 100 mM NaCl; A2AAdoR: 50 mM Tris HCl pH 7.4, 10 mM MgCl2, 1 mM EDTA; A2BAdoR: 50 mM HEPES pH 7.0, 5 mM MgCl2, 1 mM EDTA; A3AdoR: 25 HEPES pH 7.4, 10 mM MgCl2, 1 mM CaCl2), 0.5% BSA). The incubation is performed at room temperature with shaking at 300 rpm for 1 hour for A1AdoR, A2BAdoR and A3AdoR and 2 hours for A2AAdoR. After the incubation, the assay mixture is filtered through 96 GF/C filter plates (Perkin Elmer #6005174) using Perkin Elmer Filtermate Harvester, and then washed four times with ice-cold washing buffer (A1AdoR: 25 mM HEPES pH 7.4, 5 mM MgCl2, 1 mM CaCl2), 100 mM NaCl; A2AAdoR: 50 mM Tris HCl pH 7.4, 154 mM NaCl; A2BAdoR: 50 mM HEPES pH 6.5, 5 mM MgCl2, 1 mM EDTA, 0.2% BSA; A3AdoR: 50 mM Tris HCl pH 7.4). The filters are dried for 1 hour at 50° C. and [^3H] trapped on filter counted for radioactivity in Perkin Elmer Microscint 20 cocktail (#6013329) using Perkin Elmer MicroBeta2 Reader. The results are expressed as a percent inhibition of the control radioligand specific binding calculated using the following equation: % Inhibition=(1−(Assay well-Average_LC)/(Average_HC−Average_LC))×100%. Data are analyzed and IC50 is calculated using GraphPad Prism 5 and the model “log(inhibitor) vs. response—Variable slope”. The binding affinity of the compounds is determined by using the Cheng and Prusoff equation Ki=IC50/(1+[radioligand]/Kd).

human A2A AdoR = target: T2, human A2A AdoR (Homo sapiens, UniProt P29274); assay: Adenosine receptor binding assay, A2A ([3H]-CGS-21680); details: membranes of HEK-293 cells expressing human A2A AdoR; read-out: hA2A IC50
T2 construct: purchased PerkinElmer RBHA2AM400UA
T2 sequence (P29274 whole entry): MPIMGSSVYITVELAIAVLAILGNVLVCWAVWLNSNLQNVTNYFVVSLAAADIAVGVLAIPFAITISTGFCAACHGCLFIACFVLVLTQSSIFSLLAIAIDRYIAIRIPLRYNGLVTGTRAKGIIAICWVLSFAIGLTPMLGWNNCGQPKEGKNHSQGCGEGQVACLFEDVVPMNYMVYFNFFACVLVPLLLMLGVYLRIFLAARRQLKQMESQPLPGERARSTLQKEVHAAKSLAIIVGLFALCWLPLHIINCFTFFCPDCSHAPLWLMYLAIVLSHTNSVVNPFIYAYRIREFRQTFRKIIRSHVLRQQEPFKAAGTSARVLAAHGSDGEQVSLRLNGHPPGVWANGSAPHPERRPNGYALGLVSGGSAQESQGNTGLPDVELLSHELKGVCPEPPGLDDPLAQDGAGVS
Description: as §1

IC50 (human A2A AdoR) [nM]	Compound	A1/A2A Selectivity (A1AdoR)
≤ 20	Nc1nc2c(ncn2CCN2CCN(c3cc(-c4ncco4)ccc3F)CC2)c2nc(C#CC3CC3)nn12 [8-(cyclopropylethynyl)-3-(2-(4-(2-fluoro-5-(oxazol-2-yl)phenyl)piperazin-1-yl)ethyl)-3H-[1,2,4]triazolo[5,1-i]purin-5-amine]	b (greater than 100 but less than or equal to 1000)
≤ 20	Cc1cnc2c(c1)CN(CCn1nc(Cl)c3c1nc(N)n1nc(-c4ccccn4)nc31)CC2 [9-chloro-7-(2-(3-methyl-7,8-dihydro-1,6-naphthyridin-6(5H)-yl)ethyl)-2-(pyridin-2-yl)-7H-pyrazolo[4,3-e][1,2,4]triazolo[1,5-c]pyrimidin-5-amine]	c (greater than 0 but less than or equal to 100)
≤ 20	COC(=O)c1cc2c(nc(N)n3nc(-c4ccccn4)nc23)n1CCN1CCN(c2cc(-c3ncco3)ccc2F)CC1 [methyl 5-amino-7-(2-(4-(2-fluoro-5-(oxazol-2-yl)phenyl)piperazin-1-yl)ethyl)-2-(pyridin-2-yl)-7H-pyrrolo[3,2-e][1,2,4]triazolo[1,5-c]pyrimidine-8-carboxylate]	a (greater than 1000)
≤ 20	COC(=O)c1c(C)c2c(nc(N)n3nc(-c4ccccn4)nc23)n1CCN1CCN(c2cc(C)ncc2F)CC1 [methyl 5-amino-7-(2-(4-(5-fluoro-2-methylpyridin-4-yl)piperazin-1-yl)ethyl)-9-methyl-2-(pyridin-2-yl)-7H-pyrrolo[3,2-e][1,2,4]triazolo[1,5-c]pyrimidine-8-carboxylate]	a (greater than 1000)
≤ 20	COC(=O)c1c(C)c2c(nc(N)n3nc(-c4ccccn4)nc23)n1CCN1CCCN(c2cc3c(C)noc3cc2F)CC1 [methyl 5-amino-7-(2-(4-(6-fluoro-3-methylbenzo[d]isoxazol-5-yl)-1,4-diazepan-1-yl)ethyl)-9-methyl-2-(pyridin-2-yl)-7H-pyrrolo[3,2-e][1,2,4]triazolo[1,5-c]pyrimidine-8-carboxylate]	b (greater than 100 but less than or equal to 1000)
≤ 20	COC(=O)c1c(Cl)c2c(nc(N)n3nc(-c4ccccn4)nc23)n1CCN1CCN(c2cc(-c3ncco3)ccc2F)CC1 [methyl 5-amino-9-chloro-7-(2-(4-(2-fluoro-5-(oxazol-2-yl)phenyl)piperazin-1-yl)ethyl)-2-(pyridin-2-yl)-7H-pyrrolo[3,2-e][1,2,4]triazolo[1,5-c]pyrimidine-8-carboxylate]	a (greater than 1000)

More lines, now with the values behind:

Compound	IC50 (human A2A AdoR) [nM]	A1/A2A Selectivity (A1AdoR)
Cc1noc2cc(F)c(N3CCCN(CCn4c(C(=O)O)c(Cl)c5c4nc(N)n4nc(-c6ccccn6)nc54)CC3)cc12 [5-amino-9-chloro-7-(2-(4-(6-fluoro-3-methylbenzo[d]isoxazol-5-yl)-1,4-diazepan-1-yl)ethyl)-2-(pyridin-2-yl)-7H-pyrrolo[3,2-e][1,2,4]triazolo[1,5-c]pyrimidine-8-carboxylic acid]	> 100	c (greater than 0 but less than or equal to 100)
Cc1noc2cc(F)c(N3CCN(CCn4c(OC=O)c(Cl)c5c4nc(N)n4nc(-c6ccccn6)nc54)CC3)cc12 [5-amino-9-chloro-7-(2-(4-(6-fluoro-3-methylbenzo[d]isoxazol-5-yl)piperazin-1-yl)ethyl)-2-(pyridin-2-yl)-7H-pyrrolo[3,2-e][1,2,4]triazolo[1,5-c]pyrimidin-8-yl formate]	≤ 20	a (greater than 1000)
Cc1c(C(N)=O)n(CCN2CCN(c3ccncc3)CC2)c2nc(N)n3nc(-c4ccccn4)nc3c12 [5-amino-9-methyl-2-(pyridin-2-yl)-7-(2-(4-(pyridin-4-yl)piperazin-1-yl)ethyl)-7H-pyrrolo[3,2-e][1,2,4]triazolo[1,5-c]pyrimidine-8-carboxamide]	≤ 20	c (greater than 0 but less than or equal to 100)
Cc1c(C(N)=O)n(CCN2CCN(c3ncccn3)CC2)c2nc(N)n3nc(-c4ccccn4)nc3c12 [5-amino-9-methyl-2-(pyridin-2-yl)-7-(2-(4-(pyrimidin-2-yl)piperazin-1-yl)ethyl)-7H-pyrrolo[3,2-e][1,2,4]triazolo[1,5-c]pyrimidine-8-carboxamide]	≤ 20	b (greater than 100 but less than or equal to 1000)
Cc1c(C(=O)O)n(CCN2CCN(c3ncccn3)CC2)c2nc(N)n3nc(-c4ccccn4)nc3c12 [5-amino-9-methyl-2-(pyridin-2-yl)-7-(2-(4-(pyrimidin-2-yl)piperazin-1-yl)ethyl)-7H-pyrrolo[3,2-e][1,2,4]triazolo[1,5-c]pyrimidine-8-carboxylic acid]	≤ 20	b (greater than 100 but less than or equal to 1000)
Cc1cn(CCN2CCCN(c3cc(-c4ncco4)ccc3F)CC2)c2nc(N)n3nc(-c4ccccn4)nc3c12 [7-(2-(4-(2-fluoro-5-(oxazol-2-yl)phenyl)-1,4-diazepan-1-yl)ethyl)-9-methyl-2-(pyridin-2-yl)-7H-pyrrolo[3,2-e][1,2,4]triazolo[1,5-c]pyrimidin-5-amine]	≤ 20	c (greater than 0 but less than or equal to 100)
